Assay results reported in patent publication US9834558B2, “Substituted bridged urea analogs as sirtuin modulators” (GLAXOSMITHKLINE LLC, priority 2013, dated 2017).
Counter-ions that a name gives are not always drawn.

Biological target: T1, SIRT1 (Homo sapiens, UniProt Q96EB6)
T1 sequence (Q96EB6 1-747): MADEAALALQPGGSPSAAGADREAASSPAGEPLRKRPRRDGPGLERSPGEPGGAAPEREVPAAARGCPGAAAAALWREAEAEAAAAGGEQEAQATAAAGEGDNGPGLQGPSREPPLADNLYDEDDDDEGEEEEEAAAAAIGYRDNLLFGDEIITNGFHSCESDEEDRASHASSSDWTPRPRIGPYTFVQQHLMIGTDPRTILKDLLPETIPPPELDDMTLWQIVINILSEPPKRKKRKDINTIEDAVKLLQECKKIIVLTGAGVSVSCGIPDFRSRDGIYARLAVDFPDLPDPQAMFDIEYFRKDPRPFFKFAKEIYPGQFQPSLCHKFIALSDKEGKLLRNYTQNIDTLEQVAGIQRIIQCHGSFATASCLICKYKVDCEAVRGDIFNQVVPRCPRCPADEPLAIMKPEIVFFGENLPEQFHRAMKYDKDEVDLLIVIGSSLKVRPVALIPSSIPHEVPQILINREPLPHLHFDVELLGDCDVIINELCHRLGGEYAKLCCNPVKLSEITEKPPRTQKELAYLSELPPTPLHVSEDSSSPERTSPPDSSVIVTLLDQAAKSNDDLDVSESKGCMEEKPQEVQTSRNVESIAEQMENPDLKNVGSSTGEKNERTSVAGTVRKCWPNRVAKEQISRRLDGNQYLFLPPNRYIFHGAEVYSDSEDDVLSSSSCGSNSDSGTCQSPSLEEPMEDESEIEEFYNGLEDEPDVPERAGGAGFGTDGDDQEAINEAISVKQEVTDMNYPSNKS
Assay: Trp mass spectrometry assay of SIRT1 activation
Format: biochemical
Conditions: for TRP Activity (EC1.5) / Emax: Trp peptide assay; for TRP Activity (EC1.5): EC1.5 = concentration that results in 150% activation of SIRT1; for Emax: maximum activity relative to control (100%), read-out: TRP MAX RESP (percent maximum fold activation)
In short: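 Activation read-out: mass-spec measurement of O-acetyl-ADP-ribose or deacetylated Trp peptide versus compound-free controls, giving EC1.5 and Percent Maximum Activation. Reactions ran 25 min at 25 °C, pH 7.5, with 120 μM βNAD+, 0.5 μM acetylated p53-derived peptide and 10 nM His-tagged SIRT1.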

[1] = Trp peptide substrate, concentration giving 150% activation of SIRT1
[2] = concentration giving 150% activation of SIRT1, Trp peptide substrate
[3] = Trp mass spectrometry assay, EC1.5 = concentration of test compound that results in 150% activation of SIRT1

## Cc1ncc(-c2ccc3c(n2)N(C(=O)Nc2cnccn2)[C@H]2CCN3C2)o1 [(9S)-5-(2-methyl-1,3-oxazol-5-yl)-N-(pyrazin-2-yl)-1,6,8-triazatricyclo[7.2.1.0 {2,7}]dodeca-2(7),3,5-triene-8-carboxamide]
  TRP Activity (EC1.5): B (B (EC1.5 1-25 μM))
  Emax: > 150%

## Cc1cc(-c2ccc3c(n2)N(C(=O)Nc2nccc(C)n2)[C@H]2CCN3C2)ccn1 [(9S)-5-(2-methylpyridin-4-yl)-N-(4-methylpyrimidin-2-yl)-1,6,8-triazatricyclo[7.2.1.0^{2,7}]dodeca-2,4,6-triene-8-carboxamide]
  TRP Activity (EC1.5): B (B (EC1.5 1-25 μM))
  Emax: > 150%

## CCn1ncc2c(NC(=O)N3c4nc(-c5cccc(C(F)(F)F)c5)ccc4N4CC[C@H]3C4)cccc21 [81 (9)]
[1]
  Tryp AVG EC1.5 (μM): A (A (EC1.5<1 μM))

## NCCCCCC(=O)NCc1cccc(NC(=O)N2c3nc(-c4cccc(C(F)(F)F)c4)ccc3N3CCC[C@H]2C3)c1 [Example 756]
[2]
  Tryp AVG EC1.5 (μM): A (A (EC1.5<1 μM))

## Cc1cc(-c2ccc3c(n2)N(C(=O)Nc2cncc(C)n2)[C@H]2CCCN3C2)ccn1 [(9S)-N-(6-methylpyrazin-2-yl)-5-(2-methylpyridin-4-yl)-1,6,8-triazatricyclo[7.3.1.0 {2,7}]trideca-2(7),3,5-triene-8-carboxamide]
  TRP Activity (EC1.5): B (B (EC1.5 1-25 μM))
  Emax: > 150%

## COc1cc(NC(=O)N2c3nc(-c4cncc(C(F)(F)F)c4)ccc3N3C[C@@H](O)[C@H]2C3)ncn1 [Example 696]
[2]
  Tryp AVG EC1.5 (μM): B (B (EC1.5 1-25 μM))

## O=C(Nc1ccc(F)cn1)N1c2nc(N3CCCC(C(F)(F)F)C3)ccc2N2CCC[C@@H]1C2 (stereo partly drawn) [Example 362]
Trp mass spectrometry assay, concentration of test compound giving 150% activation of SIRT1
  Tryp AVG EC1.5 (μM): C (C (EC1.5>25 μM))

## O=C(Nc1cccnc1)N1c2nc(-c3cccnc3)ccc2N2CCC[C@H]1C2 [Example 455]
[3]
  Tryp AVG EC1.5 (μM): B (B (EC1.5 1-25 μM))

## O=C(Nc1cccc(-c2cnco2)c1)N1c2nc(-c3cncc(F)c3)ccc2N2CCC1CC2 [Example 574]
[3]
  Tryp AVG EC1.5 (μM): A (A (EC1.5<1 μM))

## O=C(Nc1cncc(F)c1)N1c2nc(-c3cncc(C(F)(F)F)c3)ccc2N2C[C@@H](O)[C@H]1C2 [Example 691]
[2]
  Tryp AVG EC1.5 (μM): B (B (EC1.5 1-25 μM))

## NCC#Cc1ccc(NC(=O)N2c3nc(-c4cccc(C(F)(F)F)c4)ccc3N3CC[C@H]2C3)cc1-c1cnco1 [Example 766]
[2]
  Tryp AVG EC1.5 (μM): A (A (EC1.5<1 μM))

## Cc1cnccc1NC(=O)N1c2nc(C3CCCC(C(F)(F)F)C3)ccc2N2CC[C@H]1C2 (stereo partly drawn) [Example 100]
[1]
  Tryp AVG EC1.5 (μM): B (B (EC1.5 1-25 μM))

## O=C(Nc1cnccn1)N1c2nc(-c3cncc(C(F)(F)F)c3)ccc2N2CCC[C@H]1C2 [Example 452]
[3]
  Tryp AVG EC1.5 (μM): A (A (EC1.5<1 μM))

## O=C(Nc1cnccn1)N1c2nc(-c3ccnc(C(F)(F)F)n3)ccc2N2CC[C@H]1C2 [(9S)-N-(pyrazin-2-yl)-5-[2-(trifluoromethyl)pyrimidin-4-yl]-1,6,8-triazatricyclo[7.2.1.0 {2,7}]dodeca-2(7),3,5-triene-8-carboxamide]
  TRP Activity (EC1.5): B (B (EC1.5 1-25 μM))
  Emax: > 150%

## NCc1ccc(NC(=O)N2c3nc(-c4cccc(C(F)(F)F)c4)ccc3N3CCC[C@H]2C3)cc1 [444 (4), (9S)—N-(4-(aminomethyl)phenyl)-2-(3-(trifluoromethyl)phenyl)-8,9-dihydro-6H-5,9-methanopyrido[2,3-b][1,4]diazocine-10(7H)-carboxamide hydrochloride]
[3]
  Tryp AVG EC1.5 (μM): A (A (EC1.5<1 μM))

## N#Cc1ccccc1-c1ccc2c(n1)N(C(=O)Nc1ccncn1)[C@H]1CCCN2C1 [Example 451]
[3]
  Tryp AVG EC1.5 (μM): B (B (EC1.5 1-25 μM))

## O=C(Nc1cccc(-c2cnco2)n1)N1c2nc(-c3cncc(F)c3)ccc2N2CC[C@H]1C2 [Example 739]
[2]
  Tryp AVG EC1.5 (μM): A (A (EC1.5<1 μM))
